Row | melting point | Compound
1 | 118 °C | CC(C)(C)OC(=O)NCC(=O)NCCCN1CCN(CCCNc2cccc3c2C(=O)c2ccccc2C3=O)CC1
2 | 131 to 140 °C | O=C(O)Cc1ccc(NC(=O)C(Cn2ccnc2)NS(=O)(=O)c2ccc(Br)cc2)cc1 (racemic)
3 | 141 to 142 °C | CC(=NN(C)c1ccc(C(F)(F)F)cc1)C(=O)NCc1ccc(Cl)nc1
4 | 72 to 73 °C | Oc1ccccc1CNCCCCCCNCc1ccccc1O
5 | 126 to 135 °C | OCCCCCCCCCCCOc1ccc(-c2nc(-c3ccccc3)nc(-c3ccc(OCCCCCCCCCCCO)cc3O)n2)c(O)c1
6 | 125 to 128 °C | CC(=O)NC(Oc1ccccc1)C(=O)NCc1ccccc1 (stereo not drawn)
7 | 201 to 203 °C | Nc1cc(-c2cccnc2)cc2nc(-c3ccccc3)nn12
8 | 292 to 295 °C | O=C1N=C(N2CCOCC2)SC1c1cccc(-c2ccc(O)c(-c3ccccc3)c2)n1 (stereo not drawn)
9 | 93 to 94 °C | COc1c(-c2cc3c(s2)CCC(C)(C)C3O)ccc2c(=O)c(C(=O)O)cn(C3CC3)c12 (stereo not drawn)
10 | 100 to 101 °C | CCOC(=O)C(=CN(C)C)C(=O)c1ccc(Br)cc1Cl
11 | 37 to 39 °C | NC1c2ccccc2CC2CCCCC21 (stereo not drawn)
12 | 59 to 60 °C | CC1(C)C=C(CCl)CS1(=O)=O
13 | 132 to 134 °C | CC(C)(C)O[C@H]1C[C@H]2CN(C3=Nc4cc(Cl)ccc4Sc4ccccc43)CCN2C1
14 | 49 °C | CCCCCCCC1(C(=O)OC)CCC(C2CCC(CCC)CC2)CC1 (stereo not drawn)
15 | 265 °C | c1cc2c(Nc3ccc4[nH]ccc4c3)ncnc2cn1
16 | 55.5 to 57 °C | NOc1ccc2c(c1)CCCC2=O
17 | 85 to 88 °C | CCNC(=O)c1sc(I)cc1[Si](C)(C)C
18 | 149 to 151 °C | CCOc1cc(N)c(Cl)cc1C(=O)NCCC1CN(Cc2ccccc2)CCO1 (stereo not drawn)
19 | 86.7 to 88.2 °C | CCC=C(CCC)c1c2c(nn1C)N(c1c(C)cc(C)cc1Cl)CCC2
20 | 126 to 127 °C | O=C1Cc2ccc([N+](=O)[O-])cc21
21 | > 280 °C | Cn1ncc(C(=O)N2CCOCC2)c1C(=O)Nc1ccn2nc(-c3ccnc(F)c3)nc2c1
22 | 100 to 101 °C | CS(=O)(=O)c1ccc(C2=C(c3ccc(Cl)c(Cl)c3)CCC2)cc1
23 | 103 to 105 °C | CC(C)[C@H](NC(=O)N(C)Cc1csc(NC(=O)OC(C)(C)C)n1)C(=O)N[C@@H](Cc1ccccc1)C[C@H](O)[C@H](Cc1ccccc1)NC(=O)OCc1cccnc1
24 | 129 to 130 °C | COc1cccc(CNC(=O)c2nc(OC)c3ccccc3n2)c1
25 | 156 to 158 °C | CC(C)(CNS(C)(=O)=O)Nc1nc(Cl)ncc1Cl
26 | 133 to 136 °C | CCCC(=O)c1ccc2c(c1)C(C)C(=S)N2 (stereo not drawn)
27 | 177 to 179 °C | COc1ccnc(Nc2nc(-c3cc(-c4ccccc4)no3)cs2)c1

The remaining lines, values behind:

Row | Compound | melting point
28 | CCCCCCCCCCCCCCCCCCOC1OCC(CNC(=O)C(F)(F)F)O1 (stereo not drawn) | 80 °C
29 | CCCCC(CC)Cn1c(C)cc(C)c(C(=O)O)c1=O (stereo not drawn) | 89 to 91 °C
30 | N#Cc1nc(-c2cnn(-c3c(Cl)cc(C(F)(F)F)cc3Cl)n2)[nH]c1C#N | 192 to 194 °C
31 | CCOC(=O)C=Cc1ccc(OCCCc2ccccc2)c([N+](=O)[O-])c1 | 67 to 69 °C
32 | COC(c1ccc(Cl)c2nc3n(c12)CCCN3c1ccc(Cl)cc1Cl)C1CC1 (stereo not drawn) | 138 to 139 °C
33 | CCOc1cc(C(=O)O)on1 | 210 to 213 °C
34 | Cc1nccc2[nH]c(=O)ccc12 | 235 to 237 °C
35 | COc1cccc(OC)c1Cc1c(Cl)ncnc1Cl | 152 to 153 °C
36 | CC(C)n1nc(-c2sc(NC(=O)c3ccc(CN4CCCC4)cc3)nc2-c2ccccc2)ccc1=O | 221 to 222 °C
37 | COC(=O)c1ccc([N+](=O)[O-])cc1-n1c(CCl)nc2ccccc2c1=O | 158 to 159 °C
38 | C[C@@H]1NC(=O)c2cccc([N+](=O)[O-])c2N[C@H]1C (relative stereo) | 170 °C
39 | Cc1cccc(Nc2nc(-n3nc(C)cc3C)nc3ccccc23)c1 | 249 to 250 °C
40 | CCC(Oc1ccc2ccccc2c1)C(=O)OC1CC(O)C=C2C=CC(C)C(CCC3CC(O)CC(=O)O3)C21 (mixture of isomers) | 124 to 127 °C
41 | COc1ccc2oc(C(=O)c3cc(F)ccc3F)cc2c1 | 75 to 78 °C
42 | COc1nc2cc(Br)cc(C=O)c2nc1OC | 179 to 182 °C
43 | O=S(=O)(Cl)C=Cc1ccc(C2CCCCC2)c(Br)c1 | 93 to 97 °C
44 | CC(=O)Nc1ccc2c(c1)CCCC2 | 62 °C
45 | CC=CCn1c(C)c(C)c2cnnc(SCc3c(F)cccc3Cl)c21 | 95 to 117 °C
46 | CCCCOc1ccc(C(=O)c2cccc(C(=O)O)c2)c(OC)c1 | 144 to 145 °C
47 | O=C1Cc2cc(NCCCc3ccccc3)ccc2N1 | 120 to 122 °C
48 | CCN(CC)c1ccc(C2(c3ccc(N(C)C)cc3N(C)C)OC(=O)c3c(Cl)c(Cl)c(Cl)c(Cl)c32)c(C)c1 (stereo not drawn) | 236 to 238 °C
49 | CN(C)C(=O)C(C)(C)c1cn2nc(Cl)ccc2n1 | 149 to 151 °C
50 | O=S1(=O)c2cccc3cccc(c23)N1CCCN1CCN(c2cccc(O)c2)CC1 | 175 °C

Row | Compound | melting point
51 | Nc1c(CO)cccc1[N+](=O)[O-] | 100 °C
52 | O=C(c1ccccc1)C1OC1c1ccccc1Cl (stereo not drawn) | 132 °C
53 | CCOC(=O)Cc1nc(N)cc(Cl)n1 | 127 to 128 °C
54 | O=C(CCCl)Nc1ccc2[nH]c3ccc(NC(=O)CCCl)cc3c(=O)c2c1 | > 350 °C
55 | COC(=O)CC1=CN=C(SC)NC1(C)O (stereo not drawn) | 200 °C
56 | Cc1cc(C)c(N2c3ccccc3S(=O)(=O)c3cc(C=O)ccc32)c(C)c1 | 194 to 197 °C
57 | CCOC(=O)c1sc(C)c(C(=O)OCC)c1OC | 109 to 111 °C
58 | COc1ccc2c(c1)NC(=O)C(C(=O)N(C)C)C2 (stereo not drawn) | 209 to 210 °C
59 | COc1ccc(-c2cnn(-c3ccc(N4C[C@H](CNC(C)=O)OC4=O)cc3F)c2)cc1 | 226 to 228 °C
60 | CCOC(=O)C1=C(C)NC(CO)=C(C(=O)OCC)C1c1cccc(O)c1 (stereo not drawn) | 162 to 163 °C
61 | CC(=O)Nc1ccc2cccc(Oc3cc(-c4ccc(C(F)(F)F)cc4)ncn3)c2n1 | 204 to 206 °C
62 | CCNc1cc(-c2c[nH]cn2)ccn1 | 135 to 137 °C
63 | CON=C1CSc2ccccc2CN1 | 101 to 102 °C
64 | CC(=O)Nc1c(C)ccc(O)c1C | 190 to 195 °C
65 | CCOP(=O)(CC(Nc1cccnc1)c1cc(C)c(O)c(OC)c1)OCC (stereo not drawn) | 156 to 158 °C
66 | COc1ccc2cccc(C(CCO)CNC(=O)C3CC3)c2c1 (stereo not drawn) | 158 to 160 °C
67 | CCN(CC)CCn1nc2c3c(cccc31)Sc1ccccc1-2 | 49 to 50.5 °C
68 | CCNC(=O)CC1CCN(Cc2cnc3cc(NC(=O)c4ccc(-c5ccc(Cl)cc5)cc4)ccc3c2)CC1 | 250 °C
69 | CCCCCCCCCCCCCCCC(=O)OCCCCN | 59 to 61 °C
70 | CNC1([C@@H]2CCN(c3ccc4c(=O)c(C(=O)O)cn5c4c3OC[C@@H]5C)C2)CC1 | 227 to 229 °C
71 | CN1C(=O)[C@H](NC(=O)/C=C/c2ccccc2Cl)N=C(c2ccccc2)c2ccccc21 | 128 to 131 °C
72 | C#CCOc1ccc2ccccc2c1COC(=O)C1CC1 | 68 to 73 °C
73 | CCCc1c(OCCCCCCc2cccc(OCCCCCCCCC(=O)O)c2CCC(=O)O)ccc2c1OCCC2=O | 63 to 65 °C
